Assay results taken from US20140335050A1, “METHODS, COMPOSITIONS, AND KITS FOR THE TREATMENT OF CANCER” (The General Hospital Corporation, priority 2011, published 2014).

Columns and labels:
Type in all cases: cell-based, human
[1] = test system: MU89 MART::EGFP cell line; assay: Melan-A/MART-1 promoter-driven EGFP reporter, kinetics by flow cytometry; settings: MU89 MART::EGFP (FIG. 11)
Description: FIG. 11 is a set of four graphs showing the kinetics of Melan-A/MART-1 increase. […] The same number of cells per well were plated in each well of a 24 well plate and drug was added on day zero. Each day cells were collected and assayed for that time point. Control untreated cells are shown for comparison. The data are from one representative experiment.
A kinetic analysis was performed to determine the effect of Hsp90 inhibition on Melan-A/MART-1 promoter activity over time. […] Reporter activity increases steadily for the first 72 hours of Hsp90 inhibition, and then plateaus. The need for continued presence of Hsp90 inhibitors in order for them to be effective (i.e. whether the drug can be removed after short exposure, or whether it must it be continually present) was assessed. […] To achieve full signal enhancement, it is desirable to retain the drug for at least 48 hours, after which the effect remains constant or slightly decreases.
The generation and application of EGFP reporter cells has been previously described. Briefly, a 1200 base pair human genomic DNA segment encompassing the Melan-A/MART-1 promoter was used to generate a construct driving expression of the EGFP reporter gene. Stable transfectants with this construct were generated in the low-antigen cell line A375 and the high-antigen line MM96L+ and MU89. The EGFP expression response patterns of these cells to IFN-beta and MAP kinase inhibitors recapitulates the antigen up-regulation of endogenous Melan-A/MART-1 induced by these agents.
(§1) Intracellular staining and flow cytometric analyses of cytoplasmic Melan-A/MART-1, and gp100 expression were performed as described previously. Cells were fixed with 1% formaldehyde, permeabilized with 0.1% saponin, stained with monoclonal antibodies to melanocyte antigens. Antibodies were obtained with specificity for: Melan-A/MART-1 from Vector Labs (Burlingame, Calif.); gp100/HMB45 from DakoCytomation (Carpinteria, Calif.) and then visualized with goat anti-mouse FITC-conjugated secondary antibody from Invitrogen (Frederick, Md.). The level of EGFP was determined by flow cytometry of unfixed cells washed and resuspended in 1×PBS. Surface staining of MHC Class I was carried out using the antibody W6/32 on cells harvested with Cell Stripper from MediaTech Inc. (Manassas, Va.) and carried out on ice.

[2] = test system: MALME-3M melanoma cell line; assay: Antibody staining and flow cytometry (intracellular Melan-A/MART-1, gp100, TRP-2; surface MHC Class I); settings: for MHC Class I, geometric mean of surface staining (W6/32): MALME, three days, IFN-β 5000 Units/ml
Description: (§2) Cells were fixed with 1% formaldehyde, permeabilized with 0.1% saponin, stained with monoclonal antibodies to melanocyte antigens. Antibodies were obtained with specificity for: MART-1 from Vector Labs (Burlingame, Calif.); gp100 HMB45 from DakoCytomation (Carpinteria, Calif.) and then visualized with goat anti-mouse FITC-conjugated secondary antibody from Invitrogen (Fredrick, Md.). The level of EGFP was determined by flow cytometry of unfixed cells that were washed and resuspended in 1×PBS.
(§3) Cells were plated at a density of 1×10^5 in 1 ml of medium in a 24-well plate and cultured for varying times as indicated in results. […] After incubation, cells were collected by trypsinization and then evaluated by flow cytometry.
as §1

453A melanoma cell line = assay: Intracellular antibody staining and flow cytometry (Melan-A/MART-1, gp100/HMB45); settings: 453A (BRAF M/WT, NRAS WT); 3 days; 17-AEP 1.00, CCT018159 10.00, PU-H71 0.30 μg/ml
Description: as §2, §3
as §1, with “Surface staining of MHC Class I was carried out using the antibody W6/32 on cells harvested with Cell Stripper from MediaTech Inc. (Manassas, Va.) and carried out on ice.” left out

[3] = test system: U-118 MG glioma cell line; assay: Antibody staining and flow cytometry (intracellular gp100; surface MHC Class I/II); settings: for Class I MHC, geometric mean of surface staining (W6/32): U-118
Description: as §2, §3, §1
(§4) Cell were seeded at 1×10^6 cells in a T25 flask with 10 ml of media for the 4 day IFN-beta pre-treatments. Cells were then harvested and plated in 24 well plate at 1×10^5 cells per well in 1 ml of media for 3 day treatments.
(§5) For surface staining of HLA Class I and II antigens, cells were harvested using CellStripper™ from Mediatech (Manassas, Va.). All staining steps were performed on ice. Following a first incubation with antibody to Class I (W6/32) or Class II (L243) for 30 minutes. Stained cells were washed twice with cold PBS and then stained with a goat anti-mouse FITC secondary antibody to allow for quantitative analysis by flow cytometry. For evaluation of cytoplasmic antigens, including Melan-A/MART-1 and gp100, cells were first fixed in paraformaldehyde and permeabilized with saponin as previously described. Staining for cytoplasmic antigens was carried out at room temperature (22° C.).

U-87 MG glioma cell line = assay: Antibody staining and flow cytometry (intracellular gp100; surface MHC Class I)
Description: as §2, §3, §1

[4] = test system: Raji B cell lymphoma cells; assay: Surface antibody staining and flow cytometry (MHC Class I/II)
Description: as §1, §4, §5

U2-OS osteosarcoma cells = assay: as above
Description: as §1, §4, §5

[5] = test system: EBV-19 B cell lymphoma cells; assay: as above; settings: three days, IFN-β 5000 Units/ml
Description: as §1, §5

[6] = test system: Jurkat T cell lymphoma cells; assay: as above
Description: as §1, §5

[7] = MALME-3M (BRAF M/WT, NRAS WT), 3 days, 17-AEP 0.25, CCT018159 5.00, PU-H71 0.30 μg/ml
[8] = MALME-3M, 3 days, IFN-beta 5000 Units/ml, 17-AEP 1.0, PU-H71 0.3, CCT018159 10.0 μg/ml
[9] = U-118 MG, 3 days, IFN-beta 5000 Units/ml, 17-AEP 1.0, PU-H71 0.3, CCT018159 10.0 μg/ml
[10] = U-87 MG, 3 days, IFN-beta 5000 Units/ml, 17-AEP 0.5, PU-H71 0.3, CCT018159 5.0 μg/ml
[11] = U118 cells, Table 20, single agent or simultaneous combination
[12] = three days, IFN-β 5000 Units/ml, IFN-γ 100 ng/ml, PU-H71 0.3 mg/ml
[13] = U2-OS cells, Table 20, single agent or simultaneous combination
[14] = U2-OS, three days, IFN-β 5000 Units/ml, IFN-γ 100 ng/ml, PU-H71 0.3 mg/ml

CCc1cc(-c2n[nH]c(C)c2-c2ccc3c(c2)OCCO3)c(O)cc1O [CCT018159]
Time at which the fluorescent reporter signal is significantly enhanced (as early as) [1]: 2 days | HMB45, level of induction relative to untreated control cells [2, 7]: 3.63 | MART-1, level of induction relative to untreated control cells [2, 7]: 2.48 | Class I, fold increase relative to untreated control [2, 8]: 1.6 fold | Class I, geometric mean of surface staining (W6/32) [2, 8]: 72 | MART-1, fold increase relative to untreated control [2, 8]: 2.5 fold | MART-1, geometric mean of intracellular staining [2, 8]: 291 | TRP-2, fold increase relative to untreated control [2, 8]: 2.1 fold | TRP-2, geometric mean of intracellular staining [2, 8]: 222 | gp100, fold increase relative to untreated control [2, 8]: 3.6 fold | gp100, geometric mean of intracellular staining [2, 8]: 823 | MHC Class I, geometric mean of surface staining (W6/32) [2]: 72 | HMB45, level of induction relative to untreated control cells (453A melanoma cell line): 3.38 | MART-1, level of induction relative to untreated control cells (453A melanoma cell line): 3.29 | Class I, fold increase relative to untreated control [3, 9]: 2.0 fold | Class I, geometric mean of surface staining (W6/32) [3, 9]: 101 | gp100, fold increase relative to untreated control [3, 9]: 1.4 fold | gp100, geometric mean of intracellular staining [3, 9]: 83 | Class I, fold increase relative to untreated control (U-87 MG glioma cell line; [10]): 1.0 fold | Class I, geometric mean of surface staining (W6/32) (U-87 MG glioma cell line; [10]): 28 | gp100, fold increase relative to untreated control (U-87 MG glioma cell line; [10]): 2.5 fold | gp100, geometric mean of intracellular staining (U-87 MG glioma cell line; [10]): 71

CC(C)NCCCn1c(Sc2cc3c(cc2I)OCO3)nc2c(N)ncnc21 [PU-H71]
Time at which the fluorescent reporter signal is significantly enhanced (as early as) [1]: 2 days | Class I, geometric mean of surface staining (W6/32) [2, 8]: 137 | MART-1, geometric mean of intracellular staining [2, 8]: 226 | TRP-2, geometric mean of intracellular staining [2, 8]: 279 | gp100, geometric mean of intracellular staining [2, 8]: 511 | MHC Class I, geometric mean of surface staining (W6/32) [2]: 137 | MHC Class II, geometric mean of surface staining (L2443) ([3]; Giloma-118, three days, IFN-β 5000 Units/ml, IFN-γ 100 ng/ml, PU-H71 0.3 mg/ml): 4 | MHC Class I, geometric mean of surface staining (W6/32) ([3]; Giloma-118, three days, IFN-β 5000 Units/ml, IFN-γ 100 ng/ml, PU-H71 0.3): 88 | Class II induction, combination ([3]; U118, co-treatment with IFN-gamma and PU-H71): prevented | L243 (MHC Class II surface staining) ([3]; U118, single agent): 4.1 | L243 (MHC Class II surface staining) [3, 11]: 6.3 | W6/32 (MHC Class I surface staining) [3, 11]: 135.7 | Class I MHC, geometric mean of surface staining (W6/32) ([3]; 4 day IFN-β pre-treatment (5000 Units/ml), then 3 days with fresh IFN-β, with PU-H71 0.3 where labelled (label IFN-β: no inhibitor)): 184 | Class I MHC, geometric mean of surface staining (W6/32) ([3]; 4 day IFN-β pre-treatment (5000 Units/ml), then 3 days without IFN-β, with PU-H71 0.3 where labelled (label IFN-β: no inhibitor)): 224 | Class I MHC, geometric mean of surface staining (W6/32) ([3]; single agent for 3 days, no IFN-β pre-treatment, IFN-β 5000 Units/ml, PU-H71 0.3): 138 | gp100, geometric mean of intracellular staining [3, 9]: 63 | MHC Class I, geometric mean of surface staining (W6/32) ([3]; U-118 glioma, three days, IFN-β 5000 Units/ml, PU-H71 0.075-0.3): 88 | Class I, geometric mean of surface staining (W6/32) (U-87 MG glioma cell line; [10]): 53 | gp100, geometric mean of intracellular staining (U-87 MG glioma cell line; [10]): 66 | MHC Class I, geometric mean of surface staining (W6/32) (U-87 MG glioma cell line; U-87 glioma, three days, IFN-β 5000 Units/ml, PU-H71 0.075-0.3): 71 | Class I MHC, geometric mean of surface staining (W6/32) ([4]; 4 day IFN-β pre-treatment (5000 Units/ml), then 3 days with fresh IFN-β, with PU-H71 0.3 mg/ml where labelled (label IFN-β: no inhibitor)): 129 | Class I MHC, geometric mean of surface staining (W6/32) ([4]; 4 day IFN-β pre-treatment (5000 Units/ml), then 3 days without IFN-β, with PU-H71 0.3 mg/ml where labelled (label IFN-β: no inhibitor)): 139 | L243 (MHC Class II surface staining) ([4]; single agent): 79.0 | Class I MHC, geometric mean of surface staining (W6/32) ([4]; single agent for 3 days, no IFN-β pre-treatment, IFN-β 5000 Units/ml, PU-H71 0.3 mg/ml): 157 | MHC Class I, geometric mean of surface staining (W6/32) [4, 12]: 139 | MHC Class II, geometric mean of surface staining (L2443) [4, 12]: 160 | MHC Class I, geometric mean of surface staining (W6/32) ([4]; three days, IFN-β 5000 Units/ml, PU-H71 0.075-0.3 mg/ml): 79 | L243 (MHC Class II surface staining) (U2-OS osteosarcoma cells; [13]): 1.9 | W6/32 (MHC Class I surface staining) (U2-OS osteosarcoma cells; [13]): 109.0 | Class I induction, combination (U2-OS osteosarcoma cells; U2-OS, PU-H71 in combination with interferons): highest levels are achieved | Class II antigen induction seen with IFN-gamma, combination (U2-OS osteosarcoma cells; U2-OS, PU-H71 together with IFN-gamma): prevented | L243 (MHC Class II surface staining) (U2-OS osteosarcoma cells; U2-OS, single agent): 1.8 | MHC Class I, geometric mean of surface staining (W6/32) (U2-OS osteosarcoma cells; [14]): 87 | MHC Class II, geometric mean of surface staining (L2443) (U2-OS osteosarcoma cells; [14]): 4 | MHC Class I, geometric mean of surface staining (W6/32) (U2-OS osteosarcoma cells; U2-OS, three days, IFN-β 5000 Units/ml, PU-H71 0.075-0.3 mg/ml): 108 | MHC Class II, geometric mean of surface staining (L2443) ([5]; IFN-γ 100 ng/ml, PU-H71 0.3 mg/ml): 114 | MHC Class I, geometric mean of surface staining (W6/32) ([5]; IFN-γ 100 ng/ml, PU-H71 0.3): 124 | MHC Class I, geometric mean of surface staining (W6/32) ([5]; PU-H71 0.075-0.3): 119 | L243 (MHC Class II surface staining) ([6]; single agent): 1.2 | MHC Class I, geometric mean of surface staining (W6/32) ([6]; three days, IFN-β 5000 Units/ml, IFN-γ 100 ng/ml, PU-H71 0.3 μg/ml): 24 | MHC Class II, geometric mean of surface staining (L2443) [6, 12]: 1 | MHC Class I, geometric mean of surface staining (W6/32) ([6]; three days, IFN-β 5000 Units/ml, PU-H71 0.075-0.3 μg/ml): 41
